Measured values as given in publication PMC7722354, “7-Substituted 2-Nitro-5,6-dihydroimidazo[2,1-b][1,3]oxazines: Novel Antitubercular Agents Lead to a New Preclinical Candidate for Visceral Leishmaniasis” (Journal of Medicinal Chemistry, 2017).
Values after ≈ are worked out from the molar mass of the structure shown. Where two headings read alike, the source gives them in different places.

Legend:
[1] = test system: Leishmania infantum; test: L. inf growth inhibition in mouse macrophages (LMPH); format: cell-based; conditions: Macrophage, mean of at least two determinations
[2] = kinetic aqueous solubility (Method A); format: physicochemical; conditions: 20 °C
[3] = test system: human lung fibroblasts (MRC-5 cells); test: cytotoxicity toward MRC-5 cells (LMPH); format: cell-based; conditions: MRC5
[4] = test system: M. tb, strain H37Rv; test: MABA minimum inhibitory concentration assay (aerobic); format: cell-based, Mycobacterium tuberculosis
[5] = test system: M. tb, strain H37Rv; test: LORA minimum inhibitory concentration assay (hypoxic); format: cell-based; conditions: Mycobacterium tuberculosis
[6] = test system: Leishmania donovani; test: L. don amastigote mouse macrophage-based luciferase assay (CDRI); format: cell-based; conditions: in mouse macrophages, single test (CDRI)
[7] = test system: Trypanosoma cruzi; test: T. cruzi growth inhibition on MRC-5 cells (LMPH); format: cell-based; conditions: MRC5
[8] = water, pH 7, kinetic, water (pH 7), read-out: aq solubility pH 7
[9] = Mycobacterium tuberculosis, H37RV, aerobic, read-out: MIC MABA
[10] = Mycobacterium tuberculosis, H37RV, read-out: MIC MABA, aerobic

Compound | IC50 [1] [nM] | solubility at 15 min [2, 8] [µg/mL] | IC50 [3] [nM] | MIC [4, 9] [µM] | MIC [5] [µM] | IC50 [6] [nM] | IC50 [7] [nM] | solubility at 15 min ([2]; 0.1 M HCl, pH 1, kinetic, 0.1 M HCl (pH 1), read-out: aq solubility pH 1) [µg/mL] | MIC ([4]; aerobic, read-out: MIC MABA) [µM] | MIC [4, 10] [µM]
O=[N+]([O-])c1cn2c(n1)OC(COc1ccc(-c3ccc(F)nc3)cc1)CC2 (stereo not shown) [compound 55, 7-{[4-(6-Fluoropyridin-3-yl)phenoxy]methyl}-2-nitro-6,7-dihydro-5H-imidazo[2,1-b][1,3]oxazine] | 83 | 0.36 (≈ 0.972 µM) | > 64000 | 0.24 (≈ 0.0889 µg/mL) | 3.5 (≈ 1.3 µg/mL) | > 10000 | 27 |  |  | 
O=[N+]([O-])c1cn2c(n1)OC(COc1ccc(-c3ccc(F)cc3F)cn1)CC2 (stereo not shown) [compound 62] | 37 | 0.13 (≈ 0.335 µM) | > 64000 | 0.1 (≈ 0.0388 µg/mL) | 2.4 (≈ 0.932 µg/mL) | 70 | 30 | 1.5 (≈ 3.86 µM) |  | 
O=[N+]([O-])c1cn2c(n1)OC(COc1ccc(-c3ccc(OC(F)(F)F)cc3)cn1)CC2 (stereo not shown) [compound 64] | 350 |  | > 64000 | 0.02 to 0.04 (≈ 0.00873 to 0.0175 µg/mL) | 0.47 (≈ 0.205 µg/mL) | 50 | 120 |  | 0.027 (≈ 0.0118 µg/mL) | 
CC1(COc2ccc(-c3ccc(OC(F)(F)F)cc3)cn2)CCn2cc([N+](=O)[O-])nc2O1 (stereo not shown) [compound 65] | 3800 |  | > 64000 | 0.13 (≈ 0.0585 µg/mL) | 5.3 (≈ 2.39 µg/mL) | 260 | 1000 |  |  | 
CC1(COc2ccc(-c3ccc(F)cc3F)nc2)CCn2cc([N+](=O)[O-])nc2O1 (stereo not shown) [compound 92] | 170 |  | > 64000 | 0.4 (≈ 0.161 µg/mL) | 4.9 (≈ 1.97 µg/mL) | 310 | 270 |  |  | 
CC1(COc2ccc(-c3ccc(OC(F)(F)F)cc3)nc2)CCn2cc([N+](=O)[O-])nc2O1 (stereo not shown) [compound 96] | 4000 |  | > 64000 | 0.05 (≈ 0.0225 µg/mL) | 0.88 (≈ 0.396 µg/mL) | 650 | 250 |  |  | 
O=[N+]([O-])c1cn2c(n1)OC(COc1cccc(-c3ccc(F)cc3F)n1)CC2 (stereo not shown) [compound 102] | 4000 |  | > 64000 |  | > 128 | 250 | 230 |  |  | > 128
O=[N+]([O-])c1cn2c(n1)OC(COc1ccc(-c3ccc(F)cn3)cn1)CC2 (stereo not shown) [compound 105] | 50000 |  | > 64000 | 0.15 (≈ 0.0557 µg/mL) | 11 (≈ 4.08 µg/mL) | 60 | 340 |  |  | 
CC1(COc2ccc(-c3ccc(F)cn3)cn2)CCn2cc([N+](=O)[O-])nc2O1 (stereo not shown) [compound 106] | 340 |  | > 64000 | 0.4 (≈ 0.154 µg/mL) | 9.5 (≈ 3.66 µg/mL) | 150 | 250 |  |  | 
O=[N+]([O-])c1cn2c(n1)OC(COc1ccc(-c3ccc(F)nc3F)cn1)CC2 (stereo not shown) [compound 109] | 190 |  | > 64000 | 0.25 (≈ 0.0973 µg/mL) | 4.2 (≈ 1.64 µg/mL) | > 10000 | 290 |  |  | 
O=[N+]([O-])c1cn2c(n1)OC(COc1ccc(-c3ccc(F)nc3F)nc1)CC2 (stereo not shown) [compound 114] | 52000 |  | > 64000 | 1.2 (≈ 0.467 µg/mL) | 41 (≈ 16 µg/mL) | 80 | 350 |  |  | 
CC1(COc2ccc(-c3ccc(F)nc3F)nc2)CCn2cc([N+](=O)[O-])nc2O1 (stereo not shown) [compound 115] | 280 |  | > 64000 | 0.94 (≈ 0.379 µg/mL) | 18 (≈ 7.26 µg/mL) | 110 | 380 |  |  | 
O=[N+]([O-])c1cn2c(n1)OC(COc1cccc(-c3ccc(F)nc3)n1)CC2 (stereo not shown) [compound 117] | 44000 |  | 35000 |  | > 128 | > 10000 | 130 |  |  | > 128
O=[N+]([O-])c1cn2c(n1)OC(COc1cccc(-c3ccc(F)nc3F)n1)CC2 (stereo not shown) [compound 119] | 6700 |  | > 64000 | 4.3 (≈ 1.67 µg/mL) | 10 (≈ 3.89 µg/mL) | 250 | 130 |  |  | 
O=[N+]([O-])c1cn2c(n1)OC(COc1ccc(-c3ccc(F)cc3)nn1)CC2 (stereo not shown) [compound 123] | 8400 |  | > 64000 | 0.35 (≈ 0.13 µg/mL) | 23 (≈ 8.54 µg/mL) | 70 | 670 |  |  | 
O=[N+]([O-])c1cn2c(n1)OC(COc1cnc(-c3ccc(F)cc3)cn1)CC2 (stereo not shown) [compound 126] | 710 |  | > 64000 | 0.15 (≈ 0.0557 µg/mL) | > 128 | 150 | 4700 |  |  | 
CC1(COc2ncc(-c3ccc(F)cc3)cn2)CCn2cc([N+](=O)[O-])nc2O1 (stereo not shown) [compound 131] | 290 |  | 57000 | 0.44 (≈ 0.17 µg/mL) | 6.3 (≈ 2.43 µg/mL) | 320 | 430 |  |  | 
O=[N+]([O-])c1cn2c(n1)OC(COc1ncc(-c3ccc(F)nc3)cn1)CC2 (stereo not shown) [compound 132] | > 64000 |  | > 64000 | 0.24 (≈ 0.0894 µg/mL) | 21 (≈ 7.82 µg/mL) | 530 | 3300 |  |  | 
CC1(COc2ncc(-c3ccc(F)nc3)cn2)CCn2cc([N+](=O)[O-])nc2O1 (stereo not shown) [compound 133] | 6100 |  | > 64000 | 23 (≈ 8.89 µg/mL) | 54 (≈ 20.9 µg/mL) | 1300 | 2900 |  |  | 
CC1(CN2CCN(c3ccc(F)cc3)CC2)CCn2cc([N+](=O)[O-])nc2O1 (stereo not shown) [compound 144] | 730 |  | > 64000 | 0.34 (≈ 0.128 µg/mL) | 6.8 (≈ 2.55 µg/mL) | 700 | 1300 |  |  | 
O=[N+]([O-])c1cn2c(n1)OC(CN1CCC(c3ccc(F)cc3)CC1)CC2 (stereo not shown) [compound 147] | 870 |  | > 64000 | 2.1 (≈ 0.757 µg/mL) | 11 (≈ 3.96 µg/mL) | 880 | 2900 |  |  | 
CC1(CN2CCC(c3ccc(F)cc3)CC2)CCn2cc([N+](=O)[O-])nc2O1 (stereo not shown) [compound 149] | 320 |  | > 64000 | 0.22 (≈ 0.0824 µg/mL) | 8.3 (≈ 3.11 µg/mL) | 1000 | 870 |  |  | 
CC1(CN2CCC(Oc3ccc(F)cc3)CC2)CCn2cc([N+](=O)[O-])nc2O1 (stereo not shown) [compound 154] | 320 |  | > 64000 | 0.23 (≈ 0.0898 µg/mL) | 48 (≈ 18.7 µg/mL) | 220 | 590 |  |  | 
O=C(c1ccc(F)cc1)N1CCN(CC2CCn3cc([N+](=O)[O-])nc3O2)CC1 (stereo not shown) [compound 157] | 45000 |  | > 64000 | 46 (≈ 17.9 µg/mL) | > 128 | 4800 | 11000 |  |  | 
CC1(CN2CCN(C(=O)c3ccc(F)cc3)CC2)CCn2cc([N+](=O)[O-])nc2O1 (stereo not shown) [compound 159] | 6500 |  | > 64000 | 93 (≈ 37.5 µg/mL) | > 128 | 2800 | 2800 |  |  | 
O=C(OCC1CCn2cc([N+](=O)[O-])nc2O1)N1CCN(c2ccc(F)cc2)CC1 (stereo not shown) [compound 160, (2-Nitro-6,7-dihydro-5H-imidazo[2,1-b][1,3]oxazin-7-yl)methyl 4-(4-fluorophenyl)-piperazine-1-carboxylate] | > 64000 |  | > 64000 | 2.5 (≈ 1.01 µg/mL) | 22 (≈ 8.92 µg/mL) | > 100000 | 1500 |  |  | 
CC1(COC(=O)N2CCN(c3ccc(F)cc3)CC2)CCn2cc([N+](=O)[O-])nc2O1 (stereo not shown) [compound 161] | 720 |  | > 64000 | 3.4 (≈ 1.43 µg/mL) | 8.4 (≈ 3.52 µg/mL) | 290 | 3900 |  |  | 
